Laboratory results reported in patent US20150291598A1 (NOVARTIS AG, priority 2012, published 2015).

system: P. falciparum (NF54 or 3D7 strain); assay: Assay for P. falciparum proliferation in infected human blood cells (SYBR Green); assay type: cell-based, Plasmodium falciparum; details: Plasmodium falciparum, 3D7|NF54, Erythrocyte, in Homo sapiens, 72 h, NF54 or 3D7 infected human erythrocytes, 72 hours; read-out: EC50 (nM), inhibitory efficacy in delaying P. falciparum proliferation in infected human blood cells
Outline: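 Infected erythrocytes (NF54 or 3D7; final 2.5% hematocrit, 0.3% parasitemia) were incubated with compounds for 72 h at 37 °C in low oxygen (3% O2, 4% CO2, 93% N2).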

SMILES	EC50 [nM]
CN(C(=O)c1cn2c(-c3cc4cc(C#N)ccc4[nH]3)cnc2cn1)c1ccc(C#N)cc1 [Compound 252]	> 8280

same assay, conditions: Plasmodium falciparum, Erythrocyte, 72 h, NF54 or 3D7 infected human erythrocytes, 72 hours; read-out: EC50 (nM), inhibitory efficacy in delaying P. falciparum proliferation in infected human blood cells

SMILES	EC50 [nM]
Cc1cncc(N(C)C(=O)c2cn3c(-c4ccc(C(F)(F)F)cc4)cnc3cn2)c1 [Compound 251, N-methyl-N-(5-methylpyridin-3-yl)-3-[4-(trifluoromethyl)phenyl]imidazo[1,2-a]pyrazine-6-carboxamide]	5520
CCOC(=O)c1cnc2cnc(C(=O)N(C)c3ccc(Cl)nc3)cn12 [Compound 253, ethyl 6-[(6-chloropyridin-3-yl)(methyl)carbamoyl]imidazo[1,2-a]pyrazine-3-carboxylate]	2460
CCOC(=O)Nc1ccc(-c2cnc3cnc(C(=O)N(C)c4ccc(C#N)cc4)cn23)cc1 [Compound 254, ethyl N-(4-{6-[(4-cyanophenyl)(methyl)carbamoyl]imidazo[1,2-a]pyrazin-3-yl}phenyl)carbamate]	67
CN(C(=O)c1cn2c(-c3ccc(NC(=O)C4CCC[C@H]4N)cc3)cnc2cn1)c1ccc(C#N)cc1 (stereo partly drawn) [Compound 255, 3-(4-{[(1S,2R)-2-aminocyclopentane]amido}phenyl)-N-(4-cyanophenyl)-N-methylimidazo[1,2-a]pyrazine-6-carboxamide]	155
CC(C)[C@@H](N)CC(=O)Nc1ccc(-c2cnc3cnc(C(=O)N(C)c4ccc(C#N)cc4)cn23)cc1 [Compound 256, 3-{4-[(3S)-3-amino-4-methylpentanamido]phenyl}-N-(4-cyanophenyl)-N-methylimidazo[1,2-a]pyrazine-6-carboxamide]	240
CN(C(=O)c1cn2c(-c3ccc(-c4ccn[nH]4)cc3)cnc2cn1)c1ccc(F)cc1 [Compound 257, N-(4-fluorophenyl)-N-methyl-3-[4-(1H-pyrazol-5-yl)phenyl]imidazo[1,2-a]pyrazine-6-carboxamide]	92
CN(C(=O)c1cn2c(-c3ccc(-c4ccn[nH]4)cc3)cnc2cn1)c1ccc(F)c(F)c1 [Compound 258, N-(3,4-difluorophenyl)-N-methyl-3-[4-(1H-pyrazol-5-yl)phenyl]imidazo[1,2-a]pyrazine-6-carboxamide]	76
CN(C(=O)c1ccc(Cl)cc1)c1cn2c(-c3ccc(C(F)(F)F)cc3)cnc2cn1 [Compound 259, 4-chloro-N-methyl-N-{3-[4-(trifluoromethyl)phenyl]imidazo[1,2-a]pyrazin-6-yl}benzamide]	414
COC(=O)Nc1ccc(-c2cnc3cnc(C(=O)N(C)c4ccc(C#N)cc4)cn23)cn1 [Compound 260, methyl N-(5-{6-[(4-cyanophenyl)(methyl)carbamoyl]imidazo[1,2-a]pyrazin-3-yl}pyridin-2-yl)carbamate]	399
CC(C)OC(=O)Nc1ccc(-c2cnc3cnc(C(=O)N(C)c4ccc(C#N)cc4)cn23)cc1 [Compound 261, Propan-2-yl N-(4-{6-[(4-cyanophenyl)(methyl)carbamoyl]imidazo[1,2-a]pyrazin-3-yl}phenyl)carbamate]	408
CNc1nnc(-c2ccc(-c3cnc4cnc(C(=O)N(C)c5ccc(Cl)nc5)cn34)cc2)s1 [Compound 262, N-(6-chloropyridin-3-yl)-N-methyl-3-{4-[5-(methylamino)-1,3,4-thiadiazol-2-yl]phenyl}imidazo[1,2-a]pyrazine-6-carboxamide]	97
Cc1ccc(N(C)Cc2cn3c(-c4ccc(C(F)(F)F)cc4)cnc3cn2)cc1 [Compound 263, N,4-dimethyl-N-({3-[4-(trifluoromethyl)phenyl]imidazo[1,2-a]pyrazin-6-yl}methyl)aniline]	436
CN(C(=O)c1ccc(Cl)cn1)c1cn2c(-c3ccc(C(F)(F)F)cc3)cnc2cn1 [Compound 264, 5-chloro-N-methyl-N-{3-[4-(trifluoromethyl)phenyl]imidazo[1,2-a]pyrazin-6-yl}pyridine-2-carboxamide]	277
CN(C(=O)c1cn2c(-c3ccc(C(F)F)cc3)cnc2cn1)c1ccc(Cl)nc1 [Compound 265, N-(6-chloropyridin-3-yl)-3-[4-(difluoromethyl)phenyl]-N-methylimidazo[1,2-a]pyrazine-6-carboxamide]	318
CC(C)[C@H](N)C(=O)Nc1ccc(-c2cnc3cnc(C(=O)N(C)c4ccc(C#N)cc4)cn23)cc1 [Compound 266, 3-{4-[(2S)-2-amino-3-methylbutanamido]phenyl}-N-(4-cyanophenyl)-N-methylimidazo[1,2-a]pyrazine-6-carboxamide]	234
CN(C(=O)c1ccc(Cl)nc1)c1cn2c(-c3ccc(C(F)(F)F)cc3)cnc2cn1 [Compound 267, 6-chloro-N-methyl-N-{3-[4-(trifluoromethyl)phenyl]imidazo[1,2-a]pyrazin-6-yl}pyridine-3-carboxamide]	424
CN(C(=O)c1ccc(F)cc1)c1cn2c(-c3ccc(C(F)(F)F)cc3)cnc2cn1 [Compound 268, 4-fluoro-N-methyl-N-{3-[4-(trifluoromethyl)phenyl]imidazo[1,2-a]pyrazin-6-yl}benzamide]	112
C[C@@H](N)CC(=O)Nc1ccc(-c2cnc3cnc(C(=O)N(C)c4ccc(C#N)cc4)cn23)cc1 [Compound 269, 3-{4-[(3R)-3-aminobutanamido]phenyl}-N-(4-cyanophenyl)-N-methylimidazo[1,2-a]pyrazine-6-carboxamide]	651
CN(C(=O)c1cn2c(-c3ccc(NC(=O)C(N)C4CCC4)cc3)cnc2cn1)c1ccc(C#N)cc1 (centres unmarked) [Compound 270, 3-[4-(2-amino-2-cyclobutylacetamido)phenyl]-N-(4-cyanophenyl)-N-methylimidazo[1,2-a]pyrazine-6-carboxamide]	605
CN(C(=O)c1cn2c(-c3ccc(N)nc3)cnc2cn1)c1ccc(C#N)cc1 [Compound 272, 3-(6-aminopyridin-3-yl)-N-(4-cyanophenyl)-N-methylimidazo[1,2-a]pyrazine-6-carboxamide]	295
CN(C(=O)c1cn2c(-c3ccc(OCC#N)cc3)cnc2cn1)c1ccc(C#N)cc1 [Compound 273, 3-[4-(cyanomethoxy)phenyl]-N-(4-cyanophenyl)-N-methylimidazo[1,2-a]pyrazine-6-carboxamide]	186
N#Cc1ccc2c(c1)CCCN2C(=O)c1cn2c(-c3ccc(C(F)(F)F)cc3)cnc2cn1 [Compound 274, 1-({3-[4-(trifluoromethyl)phenyl]imidazo[1,2-a]pyrazin-6-yl}carbonyl)-1,2,3,4-tetrahydroquinoline-6-carbonitrile]	224
CN(C(=O)c1cn2c(-c3ccc(C(F)(F)F)cc3F)cnc2cn1)c1ccc(Cl)nc1 [Compound 275, N-(6-chloropyridin-3-yl)-3-[2-fluoro-4-(trifluoromethyl)phenyl]-N-methylimidazo[1,2-a]pyrazine-6-carboxamide]	468
CN(C(=O)c1ccc(C(F)(F)F)cc1)c1cn2c(-c3ccc(C(F)(F)F)cc3)cnc2cn1 [Compound 276, N-methyl-4-(trifluoromethyl)-N-{3-[4-(trifluoromethyl)phenyl]imidazo[1,2-a]pyrazin-6-yl}benzamide]	310
Cc1ccc(N(C)C(=O)c2cn3c(-c4ccc(C(F)(F)F)cc4)cnc3cn2)cn1 [Compound 277, N-methyl-N-(6-methylpyridin-3-yl)-3-[4-(trifluoromethyl)phenyl]imidazo[1,2-a]pyrazine-6-carboxamide]	1130
